From patent US10350315B2, “Quinoline-3-carboxamide compounds and their use in diagnosis” (Westfaelische Wihelms-Universitaet Muenster, priority 2014, dated 2019)
pKd: −log10 of the molar value.

How the values were obtained:
[1] = target: T1, S100A9 (Mus musculus, UniProt P31725); assay: Atherosclerosis mouse model (HypoE, HFC diet), FRI of the explanted aorta; type: in vivo, SR-BI−/−/apoER61h/h mice (HypoE); settings: 10 days HFC diet, 2 h p.i.
T1 construct: from tissue; host or cells: living mice (inflamed ear, joints) and explanted mouse heart, aorta and lungs
T1 sequence (P31725 2-113 limits assumed): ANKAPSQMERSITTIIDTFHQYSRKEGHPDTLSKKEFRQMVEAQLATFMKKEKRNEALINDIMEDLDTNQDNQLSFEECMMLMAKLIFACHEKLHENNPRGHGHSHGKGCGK
Protocol: FIG. 8: Accumulation of Cy5.5-CES271 in a mouse model of atherosclerosis in a HypoE mouse, 10 days on HFC diet.
Atherosclerosis is an inflammatory disease of the vessel wall. SR-BI^−/−/apoE^R61 h/h-mice (HypoE) are known to develop atherosclerotic lesions especially when set on a high fat and high choleresterol diet (HFC). Typical predeliction site is the aortic arch. 12-14 week old mice were set on HFC diet for 10 days. At day 10 of HFC diet Cy5.5-CES271 was injected i.v., the mice were sacrificed two hours p.i., the aortic arches were explanted, and measured ex-vivo by FRI.
The hearts and aorta were fixed overnight in 4% paraformaldehyde and embedded in paraffin. Sections measuring 4 μm in thickness were analyzed. For immunohistochemistry, paraffin skin sections (4 μm) were dewaxed, blocked with 10% fetal bovine serum, and incubated with rabbit anti-S100A9 or MAC-3 antibodies for 1 h at room temperature followed by a goat-anti-rabbit biotinylated antibody and 3,3′ diaminobenzidine (DAB).

[2] = Biodistribution of Cy5.5-CES271 in healthy Balb/c mice (fluorescence intensity in organs); type: in vivo
Protocol: FIG. 16: Biodistribution of Cy5.5-CES271 in healthy Balb/c mice. The tracer was intravenously injected at a dose of 2 nmol per mouse.
The biodistribution of Cy5.5-CES271 and [^99mTc]FEB054 injected to healthy Balb/c mice was analysed by the measurement of fluorescence intensity in various organs. […] The tracer was injected at a dose of 2 nmol per mouse. […] This kinetics, that is different to previously published antibody based tracer anti-S100A9-Cy5.5^7 kinetics favors Cy5.5-CES271 for imaging of organs neighboring the liver like the lung or the heart.

[3] = target: T2, S100A9 (Homo sapiens, UniProt P06702); assay: Binding constant to coated S100A9 by fluorimetric measurement (one site saturation model); settings: human S100A9 homodimer coated, 1 h at 4° C.
T2 sequence (P06702 1-114): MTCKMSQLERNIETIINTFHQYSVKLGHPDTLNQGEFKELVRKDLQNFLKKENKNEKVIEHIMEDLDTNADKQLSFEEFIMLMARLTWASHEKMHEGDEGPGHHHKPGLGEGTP
Protocol: (§1) FIG. 15: Binding of Cy5.5-CES271 to human and murine S100A9. Estimation of the binding constant of Cy5.5-CES271 to human (A) and murine (B) S100A9. The constant was calculated using the one site saturation regression model. Each dot represents the mean value of four independent experiments.
(§2) The binding constant of Cy5.5-CES271 to murine and human S100A9 was determined by fluorimetric measurements. 0.3788 μM S100A9 (5 μg ml^−1 of homodimer S100A9) solved in 50 μl PBS was coated to the bottom of a 96-well plate and served as capturing molecule. For each S100A9 coated well a control well was used with 50 μl PBS alone. After a washing step, unspecific binding sites were blocked by PBS/5% skim milk powder. Cy5.5-CES271 was added at increasing concentrations. After 1 h incubation at 4° C., the supernatants were removed and the fluorescence intensity was measured with a fluorimeter. Non-linear regression analysis was performed with a one site saturation model, to calculate the binding constant of Cy5.5-CES271 to either murine or human S100A9. […] A strong binding affinity of the tracer to S100A9 could be observed that is not affected by the attachment of Cy5.5 to CES271.

[4] = target: T3, murine S100A9 (Mus musculus, UniProt P31725); assay: as above; settings: murine S100A9 homodimer coated, 1 h at 4° C.
T3 sequence (P31725 1-113): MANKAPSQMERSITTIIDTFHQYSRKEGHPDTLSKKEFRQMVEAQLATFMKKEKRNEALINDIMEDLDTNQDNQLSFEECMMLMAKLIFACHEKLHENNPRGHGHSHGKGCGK
Protocol: as §1, §2

[5] = target: T2, S100A9; assay: TLR4-S100A9 ELISA: blocking of S100A9 binding to TLR4/MD2; settings: S100A9 2 μg/ml, 100 μM CES271-Cy5.5, two hours at room temperature
Protocol: FIG. 5: ELISA-based blocking study showing binding of S100A9 protein to TLR4/MD2 in the presence or absence of quinoline-3-carboxamide compounds covalently linked to a label, in this case Cy5.5-CES271.
Cy5.5-CES271 was successfully synthesized as described in the previous example. Studies were then conducted to verify that Cy5.5-CES271 maintained strong binding affinity for S100A9. In this regard, a specific ELISA (Enyme-linked Immunosorbent Assay) was developed to analyse S100A9 binding to TLR4. In this newly developed assay, the binding of S100A9 to TLR4 can be measured.
Briefly, TLR4/MD2 (3146-TM-050/CF, R&D Systems) was coupled to the wells of a 96-well plate and served as capturing molecule. After blocking of the unspecific binding sites by PBS/5% skim milk powder, plates were washed three times. S100A9 protein was added at a concentration of 2 μg/ml in the presence or absence of 100 μM CES271-Cy5.5 and incubated for two hours at room temperature. Unbound S100 protein was removed by washing the plates for three times, followed by the addition of a primary anti-S100A9-antibody (1 μg/ml, polyclonal, rabbit). After a washing step, the secondary anti-rabbit-IgG-antibody coupled to HRP (1 μg/ml, Cell Signalling) was added. TMB was used as substrate for HRP to quantify binding efficiency by absorbance readings at 450 nm in an ELISA reader (Anthos Mikrosysteme).

[6] = 2 nmol per mouse i.v., 1 and 3 h after injection
[7] = between 1 h and 3 h post injection, 2 nmol i.v.

In the case of “3-ethyl-2((1E,3E,5E)-5-(3-(1-(5-ethyl-4-hydroxy-1-methyl-2-oxo-1,2-dihydroquinolin-3-yl)-1,15-dioxo-2-phenyl-5,8,11-trioxa-2,14-diazanonadecan-19-yl)-1,1-dimethyl-6,8-disulfonato-1H-benzo[e]indol-2(3H)-ylidene)penta-1,3-dien-1-yl)-1,1-dimethyl-1H-benzo[e]indol-3-ium-6,8-disulfonate [Cy5.5-CES271]”, the “Accumulation in plaque lesions of the explanted aorta” value [1] was “accumulation”, the Route of elimination [2, 6] was “mainly driven by renal excretion” and the Tissue availability [2, 6] was “good tissue availability”. The “Tracer concentration in heart, spleen, muscle, brain” value ([2]; 1 h compared with 3 h post injection, 2 nmol i.v.) was “at the same level”, the “Tracer concentration in kidney, liver and lung” value ([2]; 3 h vs 1 h post injection, 2 nmol i.v.) was “higher tracer concentrations” and the “Change of tracer concentration in the blood” value [2, 7] was “decrease”. For the same substance, the “Change of tracer concentration in the urine” value [2, 7] was “increases significantly”, the “Kinetics compared to antibody based tracers” value ([2]; mouse, in vivo) was “much faster kinetics” and the pKd [3] was 5.69. The pKd [4] was 5.58 and the “Blocking of binding of S100A9 to TLR4/MD2 (decrease of ELISA signal, absorbance 450 nm)” value [5] was “markedly block”.
